The values below come from US8722719B2, “Amine compound and use for same” (Kureha Corporation, priority 2010, dated 2014).

Molecules are shown by their SMILES.

The subject of data set [1] is HIV-1 IIIB infected MT-4 cells. The data set can be described thus: anti-HIV activity test (MTT viable cell count). The class given is cell-based. As to conditions: Human immunodeficiency virus 1, MT4, 120 h, MOI 0.01, 5 days, MTT method, read-out: EC50 (concentration at which cellular damage due to HIV infection is inhibited by 50%). The method, then: In Test Example 1, the amine compound according to the present invention was subjected to the anti-HIV activity test. HIV-1 IIIB infected MT-4 cells (3.0×10^4 cells/well, MOI (multiplicity of infection): 0.01) were added to a 96-well microtiter plate together with the test compound (compound 1, A, or B) at a different concentration immediately after infection. After culturing the cells at 37° C. for 5 days using a carbon dioxide incubator, the number of viable cells was measured by the MTT (tetrazolium) method ([…] et al., J. Virol. Method, 20, 309-321, 1988).

Data set [2] can be described thus: oral absorption properties.
A short description of data set [3]: hydrolysis in serum (background finding of the inventors). The format is in vitro ADME. As to conditions: species not stated.

Regarding `CCCN(CCC)CCCCN(CCC(=O)OCCN(C)C)Cc1ccc(CN(Cc2ncc[nH]2)Cc2nccn2C)cc1` [Compound 1, 2-dimethylaminoethyl 3-[(4-dipropylaminobutyl)(4-{[(1H-imidazol-2-ylmethyl)(1-methyl-1H-imidazol-2-ylmethyl)amino]methyl}benzyl)amino]propionate], the EC50 in data set [1] came to 3 nM.
On to `CCCN(CCC)CCCCN(CCC(=O)O)Cc1ccc(CN(Cc2ncc[nH]2)Cc2nccn2C)cc1` [Compound A, 3-[(4-dipropylaminobutyl)(4-{[(1H-imidazol-2-ylmethyl)(1-methyl-1H-imidazol-2-ylmethyl)amino]methyl}benzyl)amino]propionic acid], for which, in data set [1], the EC50 came to 3 nM. Also, in data set [2], the oral absorption properties entry is recorded as “poor oral absorption properties”.
Consider `CCCN(CCC)CCCCN(CCC(=O)OCC)Cc1ccc(CN(Cc2ncc[nH]2)Cc2nccn2C)cc1` [Compound B, ethyl 3-[(4-dipropylaminobutyl)(4-{[(1H-imidazol-2-ylmethyl)(1-methyl-1H-imidazol-2-ylmethyl)amino]methyl}benzyl)amino]propionate], for which the hydrolysis in serum result in data set [3] is “hydrolyzed to only a small extent in serum”. In data set [1], the EC50 worked out at 3 nM.
